Drawing on US8106055B2, “Substituted amide compounds” (Gruenenthal GmbH, priority 2007, dated 2012), this text covers inhibition for 18 compounds.

Assay [1] addresses T1, human bradykinin 1 receptor (B1R) (Homo sapiens, UniProt P46663).
T1 construct: expressed in transfected cells; host or cells: CHO K1 cells
T1 sequence (P46663 1-353): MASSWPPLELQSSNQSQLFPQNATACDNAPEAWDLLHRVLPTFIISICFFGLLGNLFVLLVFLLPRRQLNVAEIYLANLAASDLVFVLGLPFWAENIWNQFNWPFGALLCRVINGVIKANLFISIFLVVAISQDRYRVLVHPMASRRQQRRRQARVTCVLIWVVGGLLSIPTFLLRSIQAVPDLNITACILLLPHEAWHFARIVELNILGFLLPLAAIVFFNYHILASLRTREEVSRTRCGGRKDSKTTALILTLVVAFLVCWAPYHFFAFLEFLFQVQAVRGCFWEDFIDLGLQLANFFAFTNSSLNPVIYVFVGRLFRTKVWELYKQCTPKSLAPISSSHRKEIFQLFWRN
Put plainly: Functional investigation on the human bradykinin 1 receptor (B1R), Ca2+ FLIPR assay in CHO K1 hB1R cells. The format is cell-based. The following applies: CHO-K1, B1R antagonism human; test substance 10 μM; Ca2+ FLIPR, CHO K1 hB1R cells; read-out: B1R Ant. h [10 μM] % Inhibition. In short, it runs like this: (§1)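 Cells were dye-loaded with Fluo-4 plus probenecid, then test substances added and Ca2+ influx compared with agonist control for % activation. After 10-20 min, EC80 agonist (Lys-Des-Arg9-bradykinin human; Des-Arg9-bradykinin rat) was applied; suppression gave % inhibition and IC50 values.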

Assay [2] concerns the target T2, bradykinin 1 receptor (B1R) of the rat (Rattus norvegicus, UniProt P97583).
T2 construct: expressed in transfected cells; host or cells: CHO K1 cells
T2 sequence (P97583 1-337): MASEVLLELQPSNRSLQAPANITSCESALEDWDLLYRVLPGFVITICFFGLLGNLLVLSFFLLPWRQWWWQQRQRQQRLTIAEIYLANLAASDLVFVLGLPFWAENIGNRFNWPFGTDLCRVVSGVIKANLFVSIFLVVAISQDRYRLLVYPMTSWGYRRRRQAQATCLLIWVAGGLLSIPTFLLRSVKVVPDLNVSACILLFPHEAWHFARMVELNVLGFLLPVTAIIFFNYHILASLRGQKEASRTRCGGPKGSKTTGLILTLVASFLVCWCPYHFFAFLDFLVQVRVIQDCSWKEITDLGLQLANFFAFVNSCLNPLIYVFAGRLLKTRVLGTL
Put plainly: Functional investigation on the rat bradykinin 1 receptor (B1R), Ca2+ FLIPR assay in CHO K1 rB1R cells. The following applies: CHO-K1, B1R antagonism rat; test substance 10 μM; Ca2+ FLIPR, CHO K1 rB1R cells; read-out: B1R Ant. r [10 μM] % Inhibition. The class given is cell-based. A digest of the protocol: as §1

As for `CN(C)C(c1cccs1)C1CCC(CNC(=O)COC2CCN(S(=O)(=O)c3ccccc3)C2)CC1` (stereo not drawn) [Example 36, N-((4-((dimethylamino)(thiophen-2-yl)methyl)cyclohexyl)methyl)-2-(1-(phenylsulfonyl)pyrrolidin-3-yloxy)acetamide], the results for the inhibition at 10 µM in assay [1] and in assay [2] were -11% and 3%, respectively.
For `CN(C)C(c1cccs1)C1CCC(CNC(=O)COC2CCN(S(=O)(=O)c3ccc(Cl)cc3)C2)CC1` (stereo not drawn) [Example 54, 2-(1-(4-chlorophenylsulfonyl)pyrrolidin-3-yloxy)-N-((4-((dimethylamino)(thiophen-2-yl)methyl)cyclohexyl)methyl)acetamide], in that order: 10% and -20%.
For `COc1cc(C)c(S(=O)(=O)N(C)CCOCC(=O)NCCC2CCC(C(c3cccs3)N(C)C)CC2)c(C)c1C` (stereo not drawn) [Example 52, N-(2-(4-((dimethylamino)(thiophen-2-yl)methyl)cyclohexyl)ethyl)-2-(2-(4-methoxy-N,2,3,6-tetramethylphenylsulfonamido)ethoxy)acetamide], the inhibition at 10 µM in assay [1] amounted to 103%; in assay [2] it was 53%.
In the same order, the values of `CN(C)C(c1ccccc1)C1CCC(CNC(=O)COC2CCN(S(=O)(=O)c3ccc(Cl)cc3)C2)CC1` (stereo not drawn) [Example 81, 2-(1-(4-chlorophenylsulfonyl)pyrrolidin-3-yloxy)-N-((4-((dimethylamino)(phenyl)methyl)cyclohexyl)methyl)acetamide] are -10% and 5%.
In the same order, the values of `CN(C)C(c1ccccc1)C1CCC(NC(=O)COC2CCCCC2N(C)S(=O)(=O)c2ccc(Cl)c(Cl)c2)CC1` (stereo not drawn) [Example 39, 2-(2-(3,4-dichloro-N-methylphenylsulfonamido)cyclohexyloxy)-N-(4-((dimethylamino)(phenyl)methyl)cyclohexyl)acetamide] are 89% and -8%.
In the same order, the values of `CN(C)C(c1cccs1)C1CCC(CNC(=O)COCCN(C)S(=O)(=O)c2ccc(Cl)cc2)CC1` (stereo not drawn) [Example 55, 2-(2-(4-chloro-N-methylphenylsulfonamido)ethoxy)-N-((4-((dimethylamino)(thiophen-2-yl)methyl)cyclohexyl)methyl)acetamide] are 11% and 34%.
Take `COc1cc(C)c(S(=O)(=O)N2CCC(OCC(=O)NCC3CCC(C(c4cccs4)N(C)C)CC3)C2)c(C)c1C` (stereo not drawn) [Example 58, N-((4-((dimethylamino)(thiophen-2-yl)methyl)cyclohexyl)methyl)-2-(1-(4-methoxy-2,3,6-trimethylphenylsulfonyl)pyrrolidin-3-yloxy)acetamide]: the figures for the inhibition at 10 µM in assay [1] and in assay [2] were 52% and 5%, respectively.
For `CN(C)C(c1ccccc1)C1CCC(NC(=O)COCCN(C)S(=O)(=O)c2c(Cl)cc(Cl)cc2Cl)CC1` (stereo not drawn) [Example 34, N-(4-((dimethylamino)(phenyl)methyl)cyclohexyl)-2-(2-(2,4,6-trichloro-N-methylphenylsulfonamido)ethoxy)acetamide], in that order: 102% and 24%.
In the same order, the values of `CN(C)C(c1cccs1)C1CCC(CCNC(=O)COCCN(C)S(=O)(=O)c2ccc(F)cc2)CC1` (stereo not drawn) [Example 85, N-(2-(4-((dimethylamino)(thiophen-2-yl)methyl)cyclohexyl)ethyl)-2-(2-(4-fluoro-N-methylphenylsulfonamido)ethoxy)acetamide] are 7% and 12%.
Consider `COc1ccc(S(=O)(=O)N2CCC(OCC(=O)NCCC3CCC(C(c4cccs4)N(C)C)CC3)C2)cc1OC` (stereo not drawn) [Example 94, 2-(1-(3,4-dimethoxyphenylsulfonyl)pyrrolidin-3-yloxy)-N-(2-(4-((dimethylamino)(thiophen-2-yl)methyl)cyclohexyl)ethyl)acetamide], for which the inhibition at 10 µM in assay [1] is -5%; in assay [2], 21%.
In the same order, the values of `COc1cc(C)c(S(=O)(=O)N2CCCC(OCC(=O)NCC3CCC(C(c4cccs4)N(C)C)CC3)C2)c(C)c1C` (stereo not drawn) [Example 60, N-((4-((dimethylamino)(thiophen-2-yl)methyl)cyclohexyl)methyl)-2-(1-(4-methoxy-2,3,6-trimethylphenylsulfonyl)piperidin-3-yloxy)acetamide] are 28% and 11%.
With `COc1cc(C)c(S(=O)(=O)N2CCC(OCC(=O)NCCC3CCC(C(c4cccs4)N(C)C)CC3)C2)c(C)c1C` (stereo not drawn) [Example 74, N-(2-(4-((dimethylamino)(thiophen-2-yl)methyl)cyclohexyl)ethyl)-2-(1-(4-methoxy-2,3,6-trimethylphenylsulfonyl)pyrrolidin-3-yloxy)acetamide], the inhibition at 10 µM in assay [1] came to 66%; in assay [2], 27%.
In the case of `COc1cc(C)c(S(=O)(=O)N2CCN(CCOCC(=O)NCC3CCC(C(c4ccccc4)N(C)C)CC3)CC2)c(C)c1C` (stereo not drawn) [Example 61, N-((4-((dimethylamino)(phenyl)methyl)cyclohexyl)methyl)-2-(2-(4-(4-methoxy-2,3,6-trimethylphenylsulfonyl)piperazin-1-yl)ethoxy)acetamide], the inhibition at 10 µM turned out to be 63% in assay [1] and 25% in assay [2].
On to `COc1ccc(S(=O)(=O)N2Cc3ccccc3CC2COCC(=O)NCCC2CCC(C(c3cccs3)N(C)C)CC2)cc1` (stereo not drawn) [Example 48, N-(2-(4-((dimethylamino)(thiophen-2-yl)methyl)cyclohexyl)ethyl)-2-((2-(4-methoxyphenylsulfonyl)-1,2,3,4-tetrahydroisoquinolin-3-yl)methoxy)acetamide], for which the values for the inhibition at 10 µM in assay [1] and in assay [2] were 33% and 22%, respectively.
For `COc1ccc(S(=O)(=O)N2CCCCC2COCC(=O)NCC2CCC(C(c3ccccc3)N(C)C)CC2)cc1` (stereo not drawn) [Example 88, N-((4-((dimethylamino)(phenyl)methyl)cyclohexyl)methyl)-2-((1-(4-methoxyphenylsulfonyl)piperidin-2-yl)methoxy)acetamide], in that order: 80% and 68%.
For `CN(C)C(c1cccs1)C1CCC(CCNC(=O)COCCN(C)S(=O)(=O)c2ccc(Cl)cc2)CC1` (stereo not drawn) [Example 37, 2-(2-(4-chloro-N-methylphenylsulfonamido)ethoxy)-N-(2-(4-((dimethylamino)(thiophen-2-yl)methyl)cyclohexyl)ethyl)acetamide], the inhibition at 10 µM is 40% in assay [1] and 21% in assay [2].
With `Cc1cc(C)c(S(=O)(=O)N2CCC(OCC(=O)NC3CCC(C(c4ccccc4)N(C)C)CC3)C2)c(C)c1` (stereo not drawn) [Example 64, N-(4-((dimethylamino)(phenyl)methyl)cyclohexyl)-2-(1-(mesitylsulfonyl)pyrrolidin-3-yloxy)acetamide], the inhibition at 10 µM in assay [1] stood at 60%; in assay [2], 16%.
For `Cc1ccc(S(=O)(=O)N2CCC(OCC(=O)NCC3CCC(C(c4cccs4)N(C)C)CC3)C2)cc1` (stereo not drawn) [Example 68, N-((4-((dimethylamino)(thiophen-2-yl)methyl)cyclohexyl)methyl)-2-(1-tosylpyrrolidin-3-yloxy)acetamide], in that order: 18% and 39%.

What is called inhibition is the relative decrease from the control value, in per cent.
